In patent US9630894B2, “Energy efficient method and apparatus for the extraction of biomolecules from dilute aqueous solution” (DYNASEP INC., priority 2012, dated 2017) one finds DC data, which are given here for one compound.

The data set in a line: Distribution coefficients of ABE mixtures between DME and aqueous phase in agitated pressure vessel, HPLC. In kind it is physicochemical. How it is done: The compositions of the aqueous mixtures were based on concentrations typically produced in a cellulosic fermentation.
Mixtures were charged to a pressure vessel and agitated to provide adequate contacting between the aqueous and solvent (DME) phases. Heat tape was used to control the temperature of the liquid that was measured by thermocouples. Pressure and temperature measurements were taken every five minutes. After temperature and pressure stabilization agitation was ceased and the liquid phases were allowed to fully settle.
A mass balance was also performed on each component of the ABE and BE mixtures to determine a degree of accuracy of the results.

Turning to `O` [Water, water], the DC runs as follows: (test ABE1, […] C., 104 psig) 0.15; (test ABE2, 38.3 ° C., 102 psig) 0.14; (test ABE3, 38.3 ° C., 103 psig) 0.13; (test ABE4, 38.0 ° C., 103 psig) 0.14; (test B1, […] C., 78 psig) 0.15; (test B2, 28.2 ° C., 83 psig) 0.11. Further, the DC runs as follows: (test B3, […] C., 86 psig) 0.11; (test BE1, 30.1 ° C., 85 psig) 0.13; (test BE2, 38.9 ° C., 107 psig) 0.13; (test BE3, 37.6 ° C., 103 psig) 0.12; (test BE3, 38.4 ° C., 106 psig) 0.12.
